The numbers were not newly measured in patent US6322816A, “Fast-acting analgesic” (priority 1997, dated 2001), which cites them from elsewhere.

For series [1] the following is noted: in words, background.
The conditions of series [2]: in words, DE-C 36 39 038.
For series [3] the following is noted: versus free acid; in words, background.

Counter-ions that a name gives are not always drawn.

Consider `CC(C)Cc1ccc(C(C)C(=O)O)cc1` (racemic) [ibuprofen, 2-(4-isobutylphenyl)propionic acid], for which the solubility result in series [1] is “low solubility”.

Take `CC(C)Cc1ccc(C(C)C(=O)O)cc1` (racemic) [sodium ibuprofenate]: the hygroscopicity entry in series [1] is given as “hygroscopic”.

For `CC(C)Cc1ccc([C@H](C)C(=O)O)cc1` [S(+) isomer, S(+)-ibuprofen], the onset of action entry in series [2] was “faster onset of action”.

As for `CC(C)Cc1ccc(C(C)C(=O)O)cc1` (racemic) [lysine salt], the “maximum blood level Cmax compared with the free acid” value in series [3] is “distinctly faster and higher maximum blood level Cmax”.
